Experiments:
[1] = test system: ^89Zr labeled stem cell derived exosomes; assay: PET imaging of methylene blue mediated homing of intravenously injected 89Zr labeled exosomes to the injected hind paw (FIG. 11); type: in vivo, mouse; conditions: 1% methylene blue in Lactated Ringer's Solution injected in hind limb paw 1 h after i.v. exosomes; PET 1 h later; opposite paw (Ringer's only) showed no accumulation
Description: FIG. 11 illustrates four PET images of injected ^89Zr labeled exosomes in mice. PET images 450, 452 utilized stem cell derived exosomes, whereas PET images 454, 456 illustrate prostate cancer (PC-3) derived exosomes. Both groups of exosomes were labeled with ^89Zr, a positron emitter, which allows the exosomes to be tracked within the mouse by PET imaging. As illustrated in some or all of the PET images 450, 452, 454, 456, the heart/lungs 460, the liver 462, the gut 464/468 and 466/470 show “hotspots” of the ^89Zr labeled exosomes (homing agent mediated accumulation zones of the ^89Zr labeled exosomes). […] For PET image 452, the ^89Zr labeled stem cell derived exosomes were intravenously injected (via tail vein). Then after one hour, 1% methylene blue (in Lactated Ringer's Solution) was injected in a hind limb paw. The opposite hind limb paw received a methylene blue-free and sterile Lactated Ringer's Solution. One hour after administering the methylene blue solution, the PET image 452 was taken. […] Thus, the methylene blue homed the ^89Zr linked stem cell derived exosomes from circulation, effectively showing that the ^89Zr labeled stem cell derived exosomes targeted methylene blue.

[2] = test system: ^89Zr labeled PC-3 derived exosomes; assay: as above; type: in vivo, mouse; conditions: 1% methylene blue in Lactated Ringer's Solution injected in hind limb paw 1 h after i.v. exosomes; PET 1 h later; opposite paw (Ringer's only) showed no accumulation
Method: For PET image 456, the ^89Zr labeled PC-3 derived exosomes were intravenously injected (via tail vein). Then after one hour, 1% methylene blue (in Lactated Ringer's Solution) was injected in a hind limb paw. The opposite hind limb paw received a methylene blue-free and sterile Lactated Ringer's Solution. One hour after administering the methylene blue solution, the PET image 456 was taken. […] Thus, methylene blue homed the ^89Zr labeled PC-3 derived exosomes from circulation to the paw region, effectively showing that the ^89Zr labeled PC-3 derived exosomes targeted methylene blue.

[3] = test system: ^89Zr labeled stem cell derived exosomes; assay: Time-lapse PET imaging of the bio-distribution of 89Zr labeled exosomes after methylene blue paw injections (FIG. 12); type: in vivo, mouse
Method: FIG. 12 illustrates four time-lapse PET images showing the bio-distribution of injected ^89Zr labeled stem cell derived exosomes in a mouse. Similarly to the experiment illustrated in FIG. 11, stem cell derived exosomes were labeled with ^89Zr, a positron emitter, which allows the exosomes to be tracked within the mouse by PET imaging. Then, the ^89Zr labeled stem cell derived exosomes were injected intravenously into the mouse, and subsequently imaged thirty minutes after the injection, shown in PET image 500. Illustrated in PET image 500, and also the other PET images 502, 504, 506, are “hotspots” of the administered ^89Zr labeled stem cell derived exosomes (homing agent mediated accumulation zones of the ^89Zr labeled exosomes) at specific locations within the mouse (e.g., the heart 510, the liver 512, and the gut 514). […] Thus, the ^89Zr labeled stem cell derived exosomes were effectively homed to the tissue that contained methylene blue. After administering the methylene blue solution, 20 additional hours were lapsed before completing a second imaging of the mouse (at PET image 504). […] Then, immediately after acquiring PET image 504, the mouse was injected with the methylene blue solution at the hind paw (designated numeral 520), opposite the first hind paw injected with methylene blue (designated numeral 516). One hour after the second injection at the opposite hind paw at reference numeral 520, PET image 506 was acquired.

[4] = test system: SK-N-SH brain cancer (bone marrow metastasis) derived exosomes; assay: PET imaging of methylene blue mediated homing of intravenously injected 89Zr labeled exosomes to the injected hind paw (FIG. 13); type: in vivo, mouse; conditions: 1% methylene blue in hind limb paw 1 h after i.v. exosomes; PET 1 h later; opposite paw (Ringer's only) showed no accumulation
Method: (§1) FIG. 13 illustrates methylene blue was able to home exosomes irrespective of their cellular origin. PET image 550 and 554 was taken one hour after the mouse was intravenously injected (via tail vein) with the ^89Zr labeled A549 lung cancer derived exosomes and SK-N-SH brain cancer (bone marrow metastasis) derived exosomes, respectively. […] Then after one hour, 1% methylene blue (in Lactated Ringer's Solution) was injected in a hind limb paw. The opposite hind limb paw received a methylene blue-free and sterile Lactated Ringer's Solution. One hour after administering the methylene blue solution, the PET image 552 and 556 was taken. […] Thus, the methylene blue homed the ^89Zr labeled A549 and SK-N-SH derived exosomes from circulation showing that it can home extracellular vesicles independent of their cellular origin.

[5] = test system: ^89Zr labeled A549 lung cancer derived exosomes; assay: as above; type: in vivo, mouse; conditions: 1% methylene blue in hind limb paw 1 h after i.v. exosomes; PET 1 h later; opposite paw (Ringer's only) showed no accumulation
Method: as §1

[6] = test system: extracellular vesicles; assay: Homing of extracellular vesicles to the target site by an injected homing agent; type: in vivo; conditions: subcutaneous area in foot pad of a mouse, 500 ng also printed as 1.6 nmol
Description: We have discovered that non-toxic doses of phenothiazine derivatives or polyethylene glycols are useful for the homing of exogenous extracellular vesicles to specific tissues in the body. This discovery has many potential applications in therapy and diagnosis in its ability to spatially concentrate extracellular vesicles. These methods can improve the homing of extracellular vesicles to diseased tissues, as well as enriched sampling and extraction of extracellular vesicles for diagnostics at low cost. Rather than using extensively modified extracellular vesicles (e.g., with biological and/or chemical modifications), which can be complex and costly, extracellular vesicles can be targeted by using little to no modification of the extracellular vesicles themselves. […] Our initial findings show broad applicability with regard to the extracellular vesicles type/source and the target tissue in the context of homing using phenothiazine derivatives or polyethylene glycols. At present, the homing is effective with as low as 500 ng (1.6 nmol) of methylene blue injected at the target site. In this example, the target site is the subcutaneous area in foot pad of a mouse, with good perfusion of the methylene blue, so the effective amount of methylene blue for extracellular vesicle homing could be much lower than 500 ng (1.6 nmol).

Compound: CN(C)c1ccc2nc3ccc(=[N+](C)C)cc-3sc2c1 [methylene blue]
- accumulation of ^89Zr labeled stem cell derived exosomes in the hind paw that received methylene blue [1]: significant accumulation
- accumulation of ^89Zr labeled PC-3 derived exosomes in the hind paw that received methylene blue [2]: significant accumulation
- homing of exosomes to methylene blue injection sites (PET image 502) ([3]; 1% methylene blue injected in a hind paw and a front paw 19 hours after i.v. exosomes, imaged 3 h post-methylene blue injection): homing of exosome to hind paw
- signal from exosomes at methylene blue injection sites (PET image 504) ([3]; 20 additional hours after the methylene blue injection, hind paw and front paw): persistence of signal
- accumulation of exosomes at second methylene blue injection site, opposite hind paw (PET image 506) ([3]; second methylene blue injection about two days after exosome injection, PET one hour later): accumulated at the target site 520
- accumulation of ^89Zr labeled SK-N-SH derived exosomes in the hind paw that received methylene blue (PET image 556) [4]: significant accumulation
- accumulation of ^89Zr labeled A549 derived exosomes in the hind paw that received methylene blue (PET image 552) [5]: significant accumulation
- lowest amount at which homing is effective [6]: 500 ng
